Results: patent publication US20150072888A1, “Biomarkers For Diagnosis Of Diabetes And Monitoring Of Anti-Diabetic Therapy” (Sumitomo Bakelite Co., Ltd., priority 2012, published 2015)

How the values were obtained:
db/db mice [1] = assay: Plasma N-glycan profile of db/db mice treated with insulin detemir; assay type: in vivo, mouse; conditions: for Direction of change of hybrid glycan 430010 / Direction of change of hybrid glycan 530010 / Direction of change of hybrid glycan 630010: days 7, 14, 21, significant as early as Day 7; for Direction of change of high mannose glycan 520000 (Man5GlcNAc2) / Direction of change of high mannose glycan 620000 (Man6GlcNAc2) / Direction of change of high mannose glycan 720000 (Man7GlcNAc2) / Direction of change of high mannose glycan 820000 (Man8GlcNAc2): significant at Day 7, 14 and 21
Description: A 10 μl aliquot of each plasma sample was spiked with internal standard (700 pmol) and analyzed for N-linked glycans using Ezose Sciences' GLYCANMAP methodology. The samples were denatured and then digested with trypsin, followed by heat-inactivation. The mixture was then treated with PNGase F. After enzymatic release of N-glycans, aliquots were subjected to solid-phase processing using BLOTGLYCO beads. Following capture on the beads, the sialic acid residues were methyl esterified. The glycans were simultaneously released from the beads and labeled, and then aliquots of the recovered materials were spotted onto a MALDI target plate. Steps from initial aliquoting to spotting on the MALDI plate were performed using the fully automated SWEETBLOT technology. MALDI-TOF MS analysis was performed on an ultraflex III mass spectrometer (Bruker Daltonics) in the positive-ion, reflector mode. Each sample from the BLOTGLYCO bead processing step was spotted in quadruplicate, and spectra were obtained in an automated manner using the AutoXecute feature in flexControl software (Bruker Daltonics). Proposed glycan structures were assigned based on molecular weight. These methods have been described previously by Nishimura, Furukawa and Miura (Nishimura et al., Angew Chem. Int. Ed. Engl., 44: 91-96 (2004); Furukawa et al., Anal. Chem., 80: 1094-1101 (2008); Miura et al., Chem.-A Eur. J, 13: 4797-4804 (2007)). Alternatively, standard fluorescent HPLC or capillary electrophoresis methods with 2-AA, 2-AB, or APTS labeling can be used to monitor the glycan levels and changes in glycan patterns.
A further study was undertaken to evaluate the performance of candidate biomarkers discovered using rosiglitazone in mice treated with a diabetes drug having a different mechanism of action. The candidate biomarkers that were identified in Example 1 were evaluated in db/db mice treated with insulin detemir and vehicle.
Plasma samples were analyzed from ten db/db mice at baseline (0 days) and from 20 db/db mice (ten vehicle and ten insulin detemir-treated) at 7, 14, and 21 days. Sample preparation and analysis followed the protocol described in Example 1.
Concentrations of individual glycans in insulin detemir- and vehicle-treated db/db mice were compared at each time-point using the Student's t-test. N-glycans which yielded p-values<0.05 in this analysis were considered significant. Time-dependence was also evaluated for each of the candidate biomarkers by comparing each time-point to baseline.

db/db mice [2] = assay: Plasma N-glycan profile (GLYCANMAP, MALDI-TOF MS) of db/db mice treated with rosiglitazone, initial study (Table 1 summarises both rosiglitazone studies); assay type: in vivo, mouse; conditions: first rosiglitazone study, db/db mice vs vehicle
Description: A 10 μl aliquot of each plasma sample was spiked with internal standard (700 pmol) and analyzed for N-linked glycans using Ezose Sciences' GLYCANMAP methodology. The samples were denatured and then digested with trypsin, followed by heat-inactivation. The mixture was then treated with PNGase F. After enzymatic release of N-glycans, aliquots were subjected to solid-phase processing using BLOTGLYCO beads. Following capture on the beads, the sialic acid residues were methyl esterified. The glycans were simultaneously released from the beads and labeled, and then aliquots of the recovered materials were spotted onto a MALDI target plate. […]
Rosigilitazone is a member of the athiazolidinedione class of anti-diabetic drugs, and is marketed by Glaxo under the trade name AVANDIA. […] A baseline (Day 0) sample was not analyzed in the initial rosiglitazone study, but was included in a subsequent rosiglitazone confirmatory study. […]
Several criteria were used in the initial rosiglitazone study to select the most promising biomarkers. Statistical significance was evaluated based on the Mann-Whitney test or Student's t-test and changes considered significant if the resulting p-value was less than 0.05. […] After the confirmatory rosiglitazone study, one glycan (530010) that had been excluded in the initial study was re-evaluated. […]

[3] = db/db mice plasma vs vehicle, listed as Insulin Detemir

Compound	Changes in HbA1c compared with rosiglitazone (db/db mice [1]; db/db mice)	Magnitude of changes in high-mannose glycans compared with rosiglitazone (db/db mice [1]; db/db mice plasma)	Changes in Glycan 540020 (db/db mice [1]; db/db mice plasma vs vehicle)	Changes in O-acetylated N-glycans (db/db mice [1]; db/db mice plasma vs vehicle)	Changes in fucosylated N-glycans (db/db mice [1]; db/db mice plasma vs vehicle)	Direction of change of hybrid glycan 430010 (db/db mice [1]; db/db mice plasma vs vehicle)	Direction of change of hybrid glycan 530010 (db/db mice [1]; db/db mice plasma vs vehicle)	Direction of change of hybrid glycan 630010 (db/db mice [1]; db/db mice plasma vs vehicle)	Direction of change of hybrid glycan 430010 (db/db mice [1]; [3])	Direction of change of hybrid glycan 530010 (db/db mice [1]; [3])	Direction of change of hybrid glycan 630010 (db/db mice [1]; [3])	Direction of change of high mannose glycan 520000 (Man5GlcNAc2) (db/db mice [1]; db/db mice plasma vs vehicle)	Direction of change of high mannose glycan 620000 (Man6GlcNAc2) (db/db mice [1]; db/db mice plasma vs vehicle)	Direction of change of high mannose glycan 720000 (Man7GlcNAc2) (db/db mice [1]; db/db mice plasma vs vehicle)	Direction of change of high mannose glycan 820000 (Man8GlcNAc2) (db/db mice [1]; db/db mice plasma vs vehicle)	Direction of change of high mannose glycan 520000 (Man5GlcNAc2) (db/db mice [1]; [3])	Direction of change of high mannose glycan 620000 (Man6GlcNAc2) (db/db mice [1]; [3])	Direction of change of high mannose glycan 720000 (Man7GlcNAc2) (db/db mice [1]; [3])	Direction of change of high mannose glycan 820000 (Man8GlcNAc2) (db/db mice [1]; [3])	Time until highly significant difference (p<0.001) was achieved for HbA1c (db/db mice [2]) [days]
insulin detemir	more subtle changes	lower in magnitude	no significant changes	no significant changes	no significant changes	significant decreases	significant decreases	significant decreases	Decreased	Decreased	Decreased	lower levels	lower levels	lower levels	lower levels	Decreased	Decreased	Decreased	Decreased	–
CN(CCOc1ccc(CC2SC(=O)NC2=O)cc1)c1ccccn1 (centres unmarked) [rosiglitazone]	–	–	–	–	–	–	–	–	–	–	–	–	–	–	–	–	–	–	–	21
